PubChem BioAssay (NCI)
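Tested at 5 concentrations; 48 h exposure; 96-well plates; endpoints linearly interpolated, else capped at highest concentration. At the GI50, growth is halved. TGI denotes the concentration required for complete inhibition of growth.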

Legend:
Test in all cases: DTP human tumour cell line panel, 48 h
HCT-116 colon = system: HCT-116 colon
SK-MEL-2 melanoma = system: SK-MEL-2 melanoma
SNB-19 CNS = system: SNB-19 CNS
SK-MEL-5 melanoma = system: SK-MEL-5 melanoma
BT-549 breast = system: BT-549 breast
MDA-MB-435 = system: MDA-MB-435
NCI-H23 lung = system: NCI-H23 lung
OVCAR-5 ovarian = system: OVCAR-5 ovarian
A498 renal = system: A498 renal
786-0 renal = system: 786-0 renal

| Compound | GI50 (HCT-116 colon) [µM] | TGI (HCT-116 colon) [µM] | GI50 (SK-MEL-2 melanoma) [µM] | TGI (SK-MEL-2 melanoma) [µM] | GI50 (SNB-19 CNS) [µM] | TGI (SNB-19 CNS) [µM] | GI50 (SK-MEL-5 melanoma) [µM] | TGI (SK-MEL-5 melanoma) [µM] | GI50 (BT-549 breast) [µM] | TGI (BT-549 breast) [µM] | GI50 (MDA-MB-435) [µM] | TGI (MDA-MB-435) [µM] | GI50 (NCI-H23 lung) [µM] | TGI (NCI-H23 lung) [µM] | GI50 (OVCAR-5 ovarian) [µM] | TGI (OVCAR-5 ovarian) [µM] | GI50 (A498 renal) [µM] | TGI (A498 renal) [µM] | GI50 (786-0 renal) [µM] | TGI (786-0 renal) [µM] |
| --- | --- | --- | --- | --- | --- | --- | --- | --- | --- | --- | --- | --- | --- | --- | --- | --- | --- | --- | --- | --- |
| C[C@H](NC(=O)CCC(F)(F)F)C(=O)N[C@@H]1C(=O)N(CCO)c2ncccc2-c2ccccc21 | > 100 | > 100 | > 100 | > 100 | > 100 | > 100 | > 100 | > 100 | > 100 | > 100 | > 100 | > 100 | > 100 | > 100 | > 100 | > 100 | > 100 | > 100 | > 100 | > 100 |
| Cc1ccc(OCCCCCCNCCO)c(C)c1 | 14.2 | 31.6 | 19.8 | 37.6 | 14.3 | 31 | 10.4 | 22.4 | 13.5 | 28 | 12.3 | 28.1 | 15.5 | 35.4 | 13.7 | 28 | 3.48 | 17.7 | 14 | 28.8 |
| C#Cc1cccc(Nc2ncnc3ccc(-c4cncc(NS(C)(=O)=O)c4)cc23)c1 | 1.45 | 3.29 | 0.845 | 2.2 | 1.98 | 16.2 | 1.63 | 3.06 | 1.07 | 4.55 | 2.94 | 13.7 | 2.36 | 10.8 | 1.07 | 16.5 | 0.372 | 2.04 | 1.77 | 6.74 |
| COc1cc(/C=C\c2cccnc2Nc2ccccc2)cc(OC)c1OC | 3.77 | 15.6 | 8 | 28.8 | 6.8 | > 100 | 4.17 | 16.4 | 14.3 | 65.3 | 5.63 | 43.3 | 10.2 | > 100 | 16.3 | > 100 | 2.64 | 36.5 | 5.98 | 44.1 |
| O=C(CN=Cc1cccs1)CSC(c1ccccc1)c1ccccc1 | 16.4 | 40.7 | 19 | 34.8 | 32.5 | > 100 | 15.6 | 29 | 18.4 | 40 | 17.7 | 36.3 | 29.2 | > 100 | 44.3 | > 100 | 16.6 | 45.8 | 34 | > 100 |
